Tests used:
BaiB = molecular target: T1, BaiB ([Clostridium] scindens, UniProt A0A494WIV0); test: LC/HRMS substrate depletion and detection of CoA conjugate; assay type: biochemical; conditions: CoA ligation; CoA and ATP; HEPES pH 7.5, anoxic, 18 h
T1 construct: recombinant in E. coli BL21-CodonPlus(DE3)-RIPL, pET28b+ or modified pET28b+, His and/or Strep tag
T1 sequence (A0A494WIV0 1-507): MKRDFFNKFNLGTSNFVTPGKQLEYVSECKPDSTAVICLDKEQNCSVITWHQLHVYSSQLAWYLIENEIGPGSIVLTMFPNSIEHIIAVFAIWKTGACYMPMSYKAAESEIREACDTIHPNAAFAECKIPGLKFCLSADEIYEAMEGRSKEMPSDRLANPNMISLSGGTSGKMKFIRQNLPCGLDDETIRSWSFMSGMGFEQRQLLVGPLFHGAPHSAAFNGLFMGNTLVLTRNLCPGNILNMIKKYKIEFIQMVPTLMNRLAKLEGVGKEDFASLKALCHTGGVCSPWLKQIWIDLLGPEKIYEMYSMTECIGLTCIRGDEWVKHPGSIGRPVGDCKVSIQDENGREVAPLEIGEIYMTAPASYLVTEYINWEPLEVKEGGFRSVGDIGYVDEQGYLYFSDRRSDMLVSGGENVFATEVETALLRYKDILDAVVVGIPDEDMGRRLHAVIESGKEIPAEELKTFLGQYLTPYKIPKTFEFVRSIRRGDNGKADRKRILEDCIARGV

BaiJ = molecular target: T2, BaiJ ([Clostridium] scindens, UniProt B0NCC6); test: LC/HRMS product quantification, single enzyme; assay type: biochemical; conditions: reduction; NAD, NADP, NADH, NADPH, FMN, FAD, CoA, ATP, ADP 500 μM each; HEPES pH 7.5, 37 °C, anoxic
T2 construct: gene urdA; recombinant in E. coli BL21-CodonPlus(DE3)-RIPL, pET28b+ or modified pET28b+, His and/or Strep tag, FAD and FMN added before lysis
T2 sequence (B0NCC6 1-563): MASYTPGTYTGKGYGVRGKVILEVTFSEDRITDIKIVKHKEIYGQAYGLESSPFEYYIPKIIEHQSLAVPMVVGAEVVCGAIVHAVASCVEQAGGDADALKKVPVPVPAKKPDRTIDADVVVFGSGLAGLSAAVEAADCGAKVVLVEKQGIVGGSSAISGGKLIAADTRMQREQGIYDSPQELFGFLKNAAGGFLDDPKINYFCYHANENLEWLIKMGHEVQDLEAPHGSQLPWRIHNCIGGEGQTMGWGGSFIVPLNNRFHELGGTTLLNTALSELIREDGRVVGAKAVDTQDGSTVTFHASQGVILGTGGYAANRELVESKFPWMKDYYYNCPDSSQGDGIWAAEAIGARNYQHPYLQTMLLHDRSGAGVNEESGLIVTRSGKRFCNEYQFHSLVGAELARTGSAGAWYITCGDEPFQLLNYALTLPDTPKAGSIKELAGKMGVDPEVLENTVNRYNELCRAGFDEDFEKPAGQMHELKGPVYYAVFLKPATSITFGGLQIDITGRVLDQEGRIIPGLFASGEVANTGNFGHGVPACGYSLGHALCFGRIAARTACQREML

SMILES | LC/HRMS substrate depletion and detection of CoA conjugate (BaiB) | LC/HRMS product quantification, single enzyme (BaiJ)
C[C@H](CCC(=O)O)[C@H]1CC[C@H]2[C@@H]3[C@H](O)CC4=CC(=O)CC[C@]4(C)[C@H]3CC[C@]12C [3-oxo-Δ^4-CDCA] | the concentration of 3-oxo-Δ^4-CDCA decreased significantly in the reaction with BaiB | 
C[C@H](CCC(=O)O)[C@H]1CC[C@H]2[C@@H]3CCC4=CC(=O)CC[C@]4(C)[C@H]3CC[C@]12C [3-oxo-Δ^4-LCA] |  | BaiJ reduces 3-oxo-Δ^4-LCA and forms 3-oxo-allo-LCA as the only reduced product
